This is an account of results in patent US20230074545A1, “TREATMENT OF CANCER WITH CDK12/13 INHIBITORS” (Kinnate Biopharma Inc., priority 2019, published 2023).

Where two headings read alike, the source gives them in different places.

In one test the test system is OVCAR-3 cells. The test is described as follows: OVCAR-3 cell proliferation (CellTiter-Glo). The note with it: Homo sapiens, read-out: Inhibition of proliferation of OVCAR3 cells (IC50 in M). It is filed as cell-based. An excerpt:
OVCAR-3 was used as the cell line to model for ovarian cancer in vitro and in vivo. This cell line was obtained from ATCC (Catalog #HTB-161) and is an adenocarcinoma line from the malignant ascites of a patient with progressive adenocarcinoma of the ovary and embodies a preclinical model of high-grade, serous ovarian cancer (HGSOC). OVCAR-3 has been deemed an appropriate model system in which to study drug resistance in ovarian cancer, and the presence of hormone receptors should be useful for the evaluation of hormonal therapy. OVCAR-3 is resistant to clinically relevant concentrations of adriamycin, melphalan and cisplatin.
Compounds 1-5 were tested at different concentrations (from 4 μM to 126.4 pM; 0.5 log serial dilutions) for their ability to inhibit the proliferation of OVCAR-3 cells. Cells were grown in ATCC-formulated RPMI-1640 Medium (ATCC 30-2001)+10% FBS. The cells were cultured at 37° C. in a humidified chamber in the presence of 5% CO2. Proliferation assays were conducted over a 72 hour time period.
(§1) Cells were cultured and maintained as described above, with cells always fed on the day prior to assay. Assays were run with a 2 hour compound exposure followed by a washout and then a 72 hour proliferation time or exposed to the test compounds for 72 hours with no washout of compound. DMSO was used as a control in all wells not receiving test compound and DMSO wells were used for plate normalization. Proliferation and survival of cells was quantified based on the amount of total ATP following cell lysis as determined by using a standard assay kit used according to manufacturer's instructions. Experiments were performed in the same media used by each cell type for growth and maintenance. Cells (5×10^4) were plated in 96 well plates for compound exposure. CellTiter-Glo® (Promega Corporation, Madison, Wis. USA) was used to assess the anti-proliferative effects of the compounds following manufacturer's directions and utilizing the reagents supplied with the CellTiter-Glo® kit.

A further test concerns HCC70 cells. Briefly: HCC70 cell proliferation (CellTiter-Glo). It is filed as cell-based. Conditions: Homo sapiens, read-out: Inhibition of Proliferation of HCC70 Cells (IC50 in M). How it is done: HCC70 was the cell line used as a model of triple-negative breast cancer (TNBC). This cell line was obtained from ATCC and was initiated from a primary ductal carcinoma in 1992 (Catalog #CRL-2315; mammary gland primary ductal carcinoma). The HCC-70 tumor cell line was maintained in vitro as a monolayer culture in RPMI-1640 medium supplemented with 10% heat inactivated fetal bovine serum at 37° C. in an atmosphere of 5% CO2 in air.
Representative compounds were tested at different concentrations (from 4 μM to 126.4 pM; 0.5 log serial dilutions) for their ability to inhibit the proliferation of HCC70 cells. Cells were grown in ATCC-formulated RPMI-1640 Medium (ATCC 30-2001)+10% FBS. The cells were cultured at 37° C. in a humidified chamber in the presence of 5% CO2. Proliferation assays were conducted over a 72 hour time period.
as §1
In general terms: ATP-based viability assays read luminescence as a measure of living cells.

Test [1] has as its system RNA polymerase II. The test is described as follows: Ex vivo RNA polymerase II phosphorylation (pS2/S2) in human PBMCs. The test is classed as cell-based. Conditions: PBMC, hPBMCs, 2 hours. How it is done: (§2) The ability of the compounds to inhibit phosphorylation of peripheral blood mononuclear cells (PBMCs) was analyzed ex vivo. Compounds 1 and 4 were dosed at concentrations between 4 μM to 126.4 pM (0.5 log serial dilutions) for 2 hours. The amount of phosphorylated RNA polymerase II and the total amount of RNA polymerase II was analyzed. The values were normalized by taking the ratio of the phosphorylated RNA polymerase II to the total RNA polymerase II (pS2/S2).

The target of a further test is T1, CDK2 (Homo sapiens, UniProt P24941).
T1 construct: either as full-length or enzymatically active fragments; purchased ProQinase GmbH (Reaction Biology); host or cells: Sf9 insect cells or E. coli
Briefly: Radiometric kinase assay (33PanQinase). It is filed as biochemical. Conditions: read-out: Inhibition of CDK Activity (molar inhibition in a radiometric assay). How it is done:
(§3) The compounds 1-5 (see Table 1) were assayed for kinase activity at ProQinase (ProQinase GmbH, Reaction Biology; Freiburg, Germany) using their commercially available radiometric kinase assay services. Briefly, the compounds were provided as solids and were dissolved to 1×10^−03 M/100% DMSO stock solutions on the day of assay. All protein kinases were provided by ProQinase and were expressed in Sf9 insect cells or in E. coli as recombinant GST-fusion proteins or His-tagged proteins, either as full-length or enzymatically active fragments. All kinases were produced from human cDNAs and purified by either GSH-affinity chromatography or immobilized metal. The purity of the protein kinases was examined by SDS-PAGE/Coomassie staining, the identity was checked by mass spectroscopy. A radiometric protein kinase assay (^33PanQinase® Activity Assay) was used for measuring the kinase activity of the protein kinase. All kinase assays were performed in 96-well FlashPlates™ from PerkinElmer (Boston, Mass., USA) in a 50 microliter reaction volume. The reaction cocktail was pipetted in four steps in the following order: 1) 25 microliter of assay buffer (standard buffer/[gamma-^33P]-ATP); 2) 10 microliter of ATP solution (in H2O); 3) 5 microliter of test compound (in 10% DMSO); 4) 10 microliter of enzyme/substrate mixture.
(§4) As a parameter for assay quality, the Z′-factor (Zhang et al., J. Biomol. Screen. 2: 67-73, 1999) for the low and high controls of each assay plate (n=8) was used. ProQinase's criterion for repetition of an assay plate is a Z′-factor below 0.4.

The next test deals with T2, CDK9 (Homo sapiens, UniProt P50750).
T2 construct: either as full-length or enzymatically active fragments; purchased ProQinase GmbH (Reaction Biology); host or cells: Sf9 insect cells or E. coli
T2 sequence (P50750 whole entry, the tested form may be a part): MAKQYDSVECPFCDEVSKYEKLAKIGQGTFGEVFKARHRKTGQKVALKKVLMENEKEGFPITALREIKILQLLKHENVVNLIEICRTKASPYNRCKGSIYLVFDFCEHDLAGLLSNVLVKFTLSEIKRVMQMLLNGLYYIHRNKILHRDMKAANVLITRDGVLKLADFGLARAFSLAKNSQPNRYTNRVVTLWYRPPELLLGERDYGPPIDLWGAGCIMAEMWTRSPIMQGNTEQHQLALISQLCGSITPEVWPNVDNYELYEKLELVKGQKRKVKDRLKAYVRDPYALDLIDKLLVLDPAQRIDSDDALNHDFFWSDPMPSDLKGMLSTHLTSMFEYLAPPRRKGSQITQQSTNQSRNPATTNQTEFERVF
T2 sequence (O60563 whole entry partner, the tested form may be a part): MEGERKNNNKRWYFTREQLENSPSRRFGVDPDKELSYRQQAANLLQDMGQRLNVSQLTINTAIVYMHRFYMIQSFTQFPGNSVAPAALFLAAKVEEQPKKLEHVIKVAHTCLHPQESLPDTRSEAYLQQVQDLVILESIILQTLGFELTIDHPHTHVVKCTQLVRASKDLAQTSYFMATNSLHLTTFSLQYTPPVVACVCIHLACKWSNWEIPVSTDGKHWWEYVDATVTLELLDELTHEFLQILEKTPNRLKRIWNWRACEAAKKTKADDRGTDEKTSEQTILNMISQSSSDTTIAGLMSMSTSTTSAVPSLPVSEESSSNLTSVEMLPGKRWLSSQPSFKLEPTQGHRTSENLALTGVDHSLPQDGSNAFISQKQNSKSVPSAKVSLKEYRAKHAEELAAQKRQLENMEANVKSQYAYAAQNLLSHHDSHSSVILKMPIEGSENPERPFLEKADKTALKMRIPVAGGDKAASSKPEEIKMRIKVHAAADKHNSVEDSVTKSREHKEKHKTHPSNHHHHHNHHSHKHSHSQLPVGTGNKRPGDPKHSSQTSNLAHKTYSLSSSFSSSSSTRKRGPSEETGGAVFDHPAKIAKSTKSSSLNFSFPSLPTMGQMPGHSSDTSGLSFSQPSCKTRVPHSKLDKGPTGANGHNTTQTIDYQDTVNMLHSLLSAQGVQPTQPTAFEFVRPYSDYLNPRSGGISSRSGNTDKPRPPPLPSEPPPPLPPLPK
Briefly: Radiometric kinase assay (33PanQinase). Conditions: read-out: Inhibition of CDK Activity (molar inhibition in a radiometric assay). It is filed as biochemical. The procedure:
as §3, §4

Another test concerns the target T3, CDK13 (Homo sapiens, UniProt Q14004).
T3 construct: either as full-length or enzymatically active fragments; purchased ProQinase GmbH (Reaction Biology)
The test is described as follows: Radiometric kinase assay (33PanQinase). The test is classed as biochemical. Conditions: read-out: Inhibition of CDK Activity (molar inhibition in a radiometric assay). How it is done:
as §3, §4

For another test, the target named is T4, CDK7 (Homo sapiens, UniProt P50613).
T4 construct: either as full-length or enzymatically active fragments; purchased ProQinase GmbH (Reaction Biology); host or cells: Sf9 insect cells or E. coli
T4 sequence (P50613 whole entry, the tested form may be a part): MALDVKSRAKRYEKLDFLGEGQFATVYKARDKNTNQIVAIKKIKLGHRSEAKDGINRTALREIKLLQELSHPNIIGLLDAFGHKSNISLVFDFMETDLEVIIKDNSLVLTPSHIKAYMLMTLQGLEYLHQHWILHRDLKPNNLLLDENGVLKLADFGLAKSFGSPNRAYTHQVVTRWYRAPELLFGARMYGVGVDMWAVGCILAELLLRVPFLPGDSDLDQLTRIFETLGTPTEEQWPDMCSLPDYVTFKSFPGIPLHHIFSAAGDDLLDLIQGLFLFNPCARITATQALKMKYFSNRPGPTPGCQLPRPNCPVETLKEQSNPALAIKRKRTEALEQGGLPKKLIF
T4 sequence (P51946 whole entry partner, the tested form may be a part): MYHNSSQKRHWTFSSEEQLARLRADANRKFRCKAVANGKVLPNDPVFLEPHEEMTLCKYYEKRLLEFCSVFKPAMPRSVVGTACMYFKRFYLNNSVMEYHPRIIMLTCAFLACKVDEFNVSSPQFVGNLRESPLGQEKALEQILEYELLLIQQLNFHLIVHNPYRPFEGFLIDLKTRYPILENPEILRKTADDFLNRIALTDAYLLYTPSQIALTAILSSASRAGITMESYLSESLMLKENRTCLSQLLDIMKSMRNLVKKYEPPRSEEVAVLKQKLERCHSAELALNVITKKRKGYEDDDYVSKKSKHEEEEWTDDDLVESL
T4 sequence (P51948 whole entry partner, the tested form may be a part): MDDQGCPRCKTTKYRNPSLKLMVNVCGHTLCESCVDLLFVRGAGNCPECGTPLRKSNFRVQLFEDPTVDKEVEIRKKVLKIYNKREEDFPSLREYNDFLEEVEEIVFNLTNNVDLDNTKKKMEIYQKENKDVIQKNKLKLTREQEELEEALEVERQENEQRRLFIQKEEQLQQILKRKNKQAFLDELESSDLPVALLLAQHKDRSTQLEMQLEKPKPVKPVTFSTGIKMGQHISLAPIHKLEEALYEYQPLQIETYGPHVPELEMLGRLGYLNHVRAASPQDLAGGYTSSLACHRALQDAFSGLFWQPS
Briefly: Radiometric kinase assay (33PanQinase). It is filed as biochemical. The note with it: read-out: Inhibition of CDK Activity (molar inhibition in a radiometric assay). How it is done: as §3, §4

Another test deals with T5, CDK12 (Homo sapiens, UniProt Q9NYV4).
T5 construct: either as full-length or enzymatically active fragments; purchased ProQinase GmbH (Reaction Biology)
Briefly: Radiometric kinase assay (33PanQinase). It is filed as biochemical. The note with it: read-out: Inhibition of CDK Activity (molar inhibition in a radiometric assay). The procedure:
as §3, §4

In test [2] the test system is RNA polymerase II. Briefly: Ex vivo RNA polymerase II phosphorylation (pS2/S2) in cynomolgus PBMCs. The test is classed as cell-based. Conditions: Macaca fascicularis, PBMC; moPBMCs, 2 hours. How it is done: as §2
A further test addresses T6, MET (Homo sapiens, UniProt P08581).
T6 construct: purchased ProQinase GmbH (Reaction Biology); host or cells: Sf9 insect cells or E. coli (not specified per kinase)
The test is described as follows: Radiometric kinase panel. It is filed as biochemical. How it is done:
as §3
(§5) Compound 4 was analyzed for selectivity against a panel of other kinases at ProQinase using their commercially available radiometric kinase assay services and the methods described in Example 1.

A further test addresses T7, DAPK1 (Homo sapiens, UniProt P53355).
T7 construct: either as full-length or enzymatically active fragments; purchased ProQinase GmbH (Reaction Biology); host or cells: Sf9 insect cells or E. coli
Briefly: Radiometric kinase panel. The test is classed as biochemical. The procedure: as §3, §5

Setting [3] is: OVCAR-3 (no washout), exposed for 72 hours.
Setting [4] is: OVCAR-3 (w/washout), 2 hour exposure, washout, 72 hour proliferation.
[5] abbreviates: HCC70 (no washout), exposed for 72 hours.
[6] abbreviates: HCC70 (w/washout), 2 hour exposure, washout, 72 hour proliferation.

T3 sequence (Q14004 whole entry, the tested form may be a part): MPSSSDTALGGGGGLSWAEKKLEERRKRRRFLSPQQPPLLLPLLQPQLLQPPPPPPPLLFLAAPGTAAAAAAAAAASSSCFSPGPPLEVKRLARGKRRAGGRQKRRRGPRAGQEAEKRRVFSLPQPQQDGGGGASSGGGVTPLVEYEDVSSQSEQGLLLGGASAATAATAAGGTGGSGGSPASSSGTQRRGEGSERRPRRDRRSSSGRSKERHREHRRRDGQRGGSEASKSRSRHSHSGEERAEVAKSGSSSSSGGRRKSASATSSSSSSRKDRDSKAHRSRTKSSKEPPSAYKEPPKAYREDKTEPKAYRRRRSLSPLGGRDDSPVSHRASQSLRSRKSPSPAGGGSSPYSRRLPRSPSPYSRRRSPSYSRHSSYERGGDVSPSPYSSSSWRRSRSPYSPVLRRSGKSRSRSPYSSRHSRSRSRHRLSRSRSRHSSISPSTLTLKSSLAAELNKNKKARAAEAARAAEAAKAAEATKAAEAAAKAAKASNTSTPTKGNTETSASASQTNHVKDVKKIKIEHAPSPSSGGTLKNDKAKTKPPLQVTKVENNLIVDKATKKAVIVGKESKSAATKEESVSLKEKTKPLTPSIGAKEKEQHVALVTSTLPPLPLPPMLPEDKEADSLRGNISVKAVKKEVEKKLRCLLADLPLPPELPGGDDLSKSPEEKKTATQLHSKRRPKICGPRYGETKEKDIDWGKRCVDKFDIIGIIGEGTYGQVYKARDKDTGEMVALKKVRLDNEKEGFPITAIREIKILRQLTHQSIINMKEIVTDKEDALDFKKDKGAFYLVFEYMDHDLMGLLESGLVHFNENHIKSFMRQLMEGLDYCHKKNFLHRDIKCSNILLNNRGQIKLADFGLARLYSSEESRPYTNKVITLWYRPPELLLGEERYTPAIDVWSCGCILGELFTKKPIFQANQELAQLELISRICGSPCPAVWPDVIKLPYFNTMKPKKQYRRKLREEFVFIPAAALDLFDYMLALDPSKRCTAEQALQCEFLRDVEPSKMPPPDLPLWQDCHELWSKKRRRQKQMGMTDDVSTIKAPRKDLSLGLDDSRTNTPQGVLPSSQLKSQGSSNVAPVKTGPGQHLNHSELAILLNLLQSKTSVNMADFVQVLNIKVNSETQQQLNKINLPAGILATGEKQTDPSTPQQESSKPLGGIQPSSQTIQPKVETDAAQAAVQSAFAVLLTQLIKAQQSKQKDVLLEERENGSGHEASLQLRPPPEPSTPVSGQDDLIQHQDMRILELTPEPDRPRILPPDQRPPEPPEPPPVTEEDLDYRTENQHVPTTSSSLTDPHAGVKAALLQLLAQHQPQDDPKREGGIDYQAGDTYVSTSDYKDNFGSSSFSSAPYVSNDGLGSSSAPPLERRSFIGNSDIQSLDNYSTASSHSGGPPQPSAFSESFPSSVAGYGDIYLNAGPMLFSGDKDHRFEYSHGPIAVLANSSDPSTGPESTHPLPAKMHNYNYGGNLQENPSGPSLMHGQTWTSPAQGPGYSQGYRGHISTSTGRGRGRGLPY
T3 sequence (O75909 whole entry partner, the tested form may be a part): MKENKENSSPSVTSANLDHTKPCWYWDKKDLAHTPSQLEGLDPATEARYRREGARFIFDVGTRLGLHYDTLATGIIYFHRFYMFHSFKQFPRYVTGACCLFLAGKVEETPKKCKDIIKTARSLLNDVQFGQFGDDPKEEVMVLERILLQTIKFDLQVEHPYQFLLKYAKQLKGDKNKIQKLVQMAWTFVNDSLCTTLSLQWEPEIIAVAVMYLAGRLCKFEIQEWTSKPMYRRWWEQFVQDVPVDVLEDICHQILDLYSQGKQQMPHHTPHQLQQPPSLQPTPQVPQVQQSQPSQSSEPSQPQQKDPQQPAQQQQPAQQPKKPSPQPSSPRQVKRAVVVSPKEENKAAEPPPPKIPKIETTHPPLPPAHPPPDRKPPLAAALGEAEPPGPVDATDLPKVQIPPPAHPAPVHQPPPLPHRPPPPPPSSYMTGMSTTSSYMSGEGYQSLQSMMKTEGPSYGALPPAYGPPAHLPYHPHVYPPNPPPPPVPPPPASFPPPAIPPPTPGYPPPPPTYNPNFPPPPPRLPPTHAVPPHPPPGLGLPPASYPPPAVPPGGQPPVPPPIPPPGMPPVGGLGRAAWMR

`C=CC(=O)Nc1ccc(C(=O)N2CC[C@@H](Nc3ncc(Cl)c(OC)n3)C2)cc1` [Compound 1, (R)-N-(4-(3-((5-chloro-4-methoxypyrimidin-2-yl)amino)pyrrolidine-1-carbonyl)phenyl)acrylamide]: the IC50 in the test with OVCAR-3 cells (setting [3]) worked out at 4.45 nM; with OVCAR-3 cells (setting [4]), 82.4 nM; in the test on HCC70 cells (setting [5]) it was 5.1 nM; in the test with HCC70 cells (setting [6]) it was 14.1 nM; with RNA polymerase II [1], 19.3 nM; on CDK2, 1150 nM. Also, the IC50 amounted to 288 nM on CDK9; 25.8 nM on CDK13; 1100 nM at CDK7; 21.3 nM on CDK12; 21.6 nM in the test with RNA polymerase II [2].

The inhibition is the drop in the measured response relative to a control, in per cent. Regarding `C=CC(=O)Nc1ccc(C(=O)N2CC[C@@H](Nc3ncc(C#N)cn3)C2)cc1` [Compound 4, (R)-N-(4-(3-((5-cyanopyrimidin-2-yl)amino)pyrrolidine-1-carbonyl)phenyl)acrylamide], the IC50 in the test on OVCAR-3 cells (setting [3]) stood at 31 nM; in the test with OVCAR-3 cells (setting [4]), 179 nM; with HCC70 cells (setting [5]) it was 32.3 nM; with HCC70 cells (setting [6]), 134 nM; in the test with RNA polymerase II [1], 167 nM; at CDK2, 7550 nM. The IC50 at CDK9 turned out to be 3970 nM; on CDK13, 293 nM; at CDK7 it was 6960 nM; on CDK12, 131 nM; in the test on RNA polymerase II [2] it was 181 nM. For the same compound, the values for the inhibition at 1 µM against MET and against DAPK1 were 0% and -15%, respectively.
